Reference: patent US7612211B2, “Benzimidazole TRPV1 inhibitors” (Janssen Pharmaceutica N.V., priority 2006, dated 2009)

Molecular target: T1, hTRPV1 (Homo sapiens, UniProt Q8NER1)
T1 construct: expressed in transfected cells; host or cells: HEK293
Assay: Human TRPV1 (hTRPV1) functional assay, FLIPR intracellular Ca2+, capsaicin challenge
Format: cell-based
Conditions: HEK293 cells expressing hTRPV1, capsaicin 0.030 μM challenge; for inhibition at 0.5 µM: test concentration of 0.5 μm, read-out: percent inhibition (symbol a); for IC50: derived from a variety of test concentrations, read-out: IC50 value (symbol c)
Description: The functional activity of the test compounds was determined by measuring changes in intracellular calcium concentration using a Ca^++-sensitive fluorescent dye and FLIPR™ technology. Increases in Ca^++ concentration were readily detected upon challenge with capsaicin.
HEK293 cells expressing hTRPV1 were grown on poly-D-lysine coated 384 well black-walled plates (BD 354663) and 1 day later loaded with Calcium 3 Dye for 35 min at 37° C., 5% CO2 and then for 25 min at room temperature, and subsequently tested for agonist-induced increases in intracellular Ca^2+ levels using FLIPR™ technology. Cells were challenged with test compounds (at varying concentrations) and intracellular Ca^2+ was measured for 5 min prior to the addition of capsaicin to all wells to achieve a final concentration of 0.030 μM eliciting ˜80% maximal response.
EC50 or IC50 values were determined from concentration-response studies, which were generated using the average of quadruplicate wells for each data point. The symbol “a” represents percent inhibition obtained at a test concentration of 0.5 μm; the symbol “b” represents percent inhibition obtained at a test concentration of 0.2 μm; the symbol “c” represents an IC50 value (nM) derived from a variety of test concentrations. The term “NA” means that the result is not applicable for a particular compound.

T1 sequence (Q8NER1 whole entry): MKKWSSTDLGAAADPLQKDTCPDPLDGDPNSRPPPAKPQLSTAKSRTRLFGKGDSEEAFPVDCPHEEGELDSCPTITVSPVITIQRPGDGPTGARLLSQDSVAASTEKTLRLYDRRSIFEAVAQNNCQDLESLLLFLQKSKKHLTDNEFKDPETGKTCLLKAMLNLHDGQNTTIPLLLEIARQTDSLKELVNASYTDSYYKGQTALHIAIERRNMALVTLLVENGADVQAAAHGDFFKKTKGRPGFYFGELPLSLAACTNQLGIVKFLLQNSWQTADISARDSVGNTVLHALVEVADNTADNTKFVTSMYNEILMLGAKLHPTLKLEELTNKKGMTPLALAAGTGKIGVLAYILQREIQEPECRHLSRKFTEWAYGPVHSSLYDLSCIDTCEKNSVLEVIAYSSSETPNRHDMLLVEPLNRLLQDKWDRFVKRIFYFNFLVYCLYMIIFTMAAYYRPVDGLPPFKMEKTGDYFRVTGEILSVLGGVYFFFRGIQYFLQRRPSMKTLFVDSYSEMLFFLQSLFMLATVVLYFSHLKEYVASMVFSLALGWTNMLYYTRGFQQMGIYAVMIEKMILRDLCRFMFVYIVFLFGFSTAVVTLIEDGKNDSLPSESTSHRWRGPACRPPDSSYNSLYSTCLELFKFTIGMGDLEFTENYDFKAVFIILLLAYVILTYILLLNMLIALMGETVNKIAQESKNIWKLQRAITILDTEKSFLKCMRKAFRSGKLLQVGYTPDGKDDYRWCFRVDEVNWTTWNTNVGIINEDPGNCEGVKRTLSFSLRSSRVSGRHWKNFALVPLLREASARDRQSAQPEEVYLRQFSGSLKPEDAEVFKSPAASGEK

inhibition at 0.5 µM [%] | IC50 [nM] | inhibition at 0.2 µM (test concentration of 0.2 μm, read-out: percent inhibition (symbol b)) [%] | Compound
43 | – | – | NS(=O)(=O)c1ccccc1-c1ccc2[nH]c(COc3ccccc3F)nc2c1 [Cpd 3, 2-[2-(2-fluoro-phenoxymethyl)-1H-benzoimidazol-5-yl]-benzenesulfonamide]
67 | – | – | NS(=O)(=O)c1ccccc1-c1ccc2[nH]c(COc3cccc(F)c3)nc2c1 [Cpd 4, 2-[2-(3-fluoro-phenoxymethyl)-1H-benzoimidazol-5-yl]-benzenesulfonamide]
71 | – | – | NS(=O)(=O)c1ccccc1-c1ccc2[nH]c(COc3ccc(F)cc3)nc2c1 [Cpd 5, 2-[2-(4-fluoro-phenoxymethyl)-1H-benzoimidazol-5-yl]-benzenesulfonamide]
87 | 102 | – | NS(=O)(=O)c1ccccc1-c1ccc2[nH]c(COc3cccc(Cl)c3)nc2c1 [Cpd 6, 2-[2-(3-chloro-phenoxymethyl)-1H-benzoimidazol-5-yl]-benzenesulfonamide]
– | 13 | – | NS(=O)(=O)c1ccccc1-c1ccc2[nH]c(COc3ccc(Cl)cc3)nc2c1 [Cpd 7, 2-[2-(4-chloro-phenoxymethyl)-1H-benzoimidazol-5-yl]-benzenesulfonamide]
– | 6.6 | – | NS(=O)(=O)c1ccccc1-c1ccc2[nH]c(COc3ccc(Br)cc3)nc2c1 [Cpd 8, 2-[2-(4-bromo-phenoxymethyl)-1H-benzoimidazol-5-yl]-benzenesulfonamide]
– | 110 | – | NS(=O)(=O)c1ccccc1-c1ccc2[nH]c(COc3ccc(F)cc3F)nc2c1 [Cpd 9, 2-[2-(2,4-difluoro-phenoxymethyl)-1H-benzoimidazol-5-yl]-benzenesulfonamide]
– | 120 | – | NS(=O)(=O)c1ccccc1-c1ccc2[nH]c(COc3ccc(F)c(F)c3)nc2c1 [Cpd 10, 2-[2-(3,4-difluoro-phenoxymethyl)-1H-benzoimidazol-5-yl]-benzenesulfonamide]
– | 38 | – | NS(=O)(=O)c1ccccc1-c1ccc2[nH]c(COc3ccc(F)c(Cl)c3)nc2c1 [Cpd 11, 2-[2-(3-chloro-4-fluoro-phenoxymethyl)-1H-benzoimidazol-5-yl]-benzenesulfonamide]
– | 18 | – | NS(=O)(=O)c1ccccc1-c1ccc2[nH]c(COc3ccc(F)c(C(F)(F)F)c3)nc2c1 [Cpd 12, 2-[2-(4-fluoro-3-trifluoromethyl-phenoxymethyl)-1H-benzoimidazol-5-yl]-benzenesulfonamide]
– | 61 | – | NS(=O)(=O)c1ccccc1-c1ccc2[nH]c(COc3cccc(C(F)(F)F)c3)nc2c1 [Cpd 13, 2-[2-(3-trifluoromethyl-phenoxymethyl)-1H-benzoimidazol-5-yl]-benzenesulfonamide]
– | 110 | – | NS(=O)(=O)c1ccccc1-c1ccc2[nH]c(COc3ccc(F)c(F)c3F)nc2c1 [Cpd 14, 2-[2-(2,3,4-trifluoro-phenoxymethyl)-1H-benzoimidazol-5-yl]-benzenesulfonamide]
– | 25 | – | NS(=O)(=O)c1ccccc1-c1ccc2[nH]c(COc3cccc(OC(F)(F)F)c3)nc2c1 [Cpd 15, 2-[2-(3-trifluoromethoxy-phenoxymethyl)-1H-benzoimidazol-5-yl]-benzenesulfonamide]
97 | 71 | – | CNS(=O)(=O)c1ccccc1-c1ccc2[nH]c(COc3ccc(Cl)cc3)nc2c1 [Cpd 18, 2-[2-(4-chloro-phenoxymethyl)-1H-benzoimidazol-5-yl]-N-methyl-benzenesulfonamide]
100 | 8 | – | CNS(=O)(=O)c1ccccc1-c1ccc2[nH]c(COc3ccc(S(C)(=O)=O)cc3)nc2c1 [Cpd 19, 2-[2-(4-methanesulfonyl-phenoxymethyl)-1H-benzoimidazol-5-yl]-N-methyl-benzenesulfonamide]
100 | 20 | – | CNS(=O)(=O)c1ccccc1-c1ccc2[nH]c(COc3ccc(S(=O)(=O)C(F)(F)F)cc3)nc2c1 [Cpd 20, N-methyl-2-[2-(4-trifluoromethanesulfonyl-phenoxymethyl)-1H-benzoimidazol-5-yl]-benzenesulfonamide]
100 | 4 | – | CC(C)(O)c1ccccc1-c1ccc2[nH]c(COc3ccc(OC(F)(F)F)cc3)nc2c1 [Cpd 22, 2-{2-[2-(4-trifluoromethoxy-phenoxymethyl)-1H-benzoimidazol-5-yl]-phenyl}-propan-2-ol]
100 | 19 | – | CC(C)(O)c1ccccc1-c1ccc2[nH]c(COc3ccc(Cl)cc3)nc2c1 [Cpd 23, 2-{2-[2-(4-chloro-phenoxymethyl)-1H-benzoimidazol-5-yl]-phenyl}-propan-2-ol]

inhibition at 0.5 µM [%] | IC50 [nM] | inhibition at 0.2 µM (test concentration of 0.2 μm, read-out: percent inhibition (symbol b)) [%] | Compound
92 | 156 | – | CC(C)(O)c1ccccc1-c1ccc2[nH]c(COc3cccc(C(F)(F)F)c3)nc2c1 [Cpd 24, 2-{2-[2-(3-trifluoromethyl-phenoxymethyl)-1H-benzoimidazol-5-yl]-phenyl}-propan-2-ol]
100 | 13 | – | CC(C)(O)c1ccccc1-c1ccc2[nH]c(COc3ccc(S(C)(=O)=O)cc3)nc2c1 [Cpd 25, 2-{2-[2-(4-methanesulfonyl-phenoxymethyl)-1H-benzoimidazol-5-yl]-phenyl}-propan-2-ol]
87 | 177 | – | NS(=O)(=O)c1ccccc1-c1ccc2[nH]c(COc3ccccc3)nc2c1 [Cpd 26, 2-(2-phenoxymethyl-1H-benzoimidazol-5-yl)-benzenesulfonamide]
98 | 12 | – | Cc1ccc(OCc2nc3cc(-c4ccccc4S(N)(=O)=O)ccc3[nH]2)cc1 [Cpd 27, 2-(2-p-tolyloxymethyl-1H-benzoimidazol-5-yl)-benzenesulfonamide]
98 | 8.9 | – | CC(C)c1ccc(OCc2nc3cc(-c4ccccc4S(N)(=O)=O)ccc3[nH]2)cc1 [Cpd 28, 2-[2-(4-isopropyl-phenoxymethyl)-1H-benzoimidazol-5-yl]-benzenesulfonamide]
98 | 22 | – | NS(=O)(=O)c1ccccc1-c1ccc2[nH]c(COc3ccc(Cl)c(Cl)c3)nc2c1 [Cpd 29, 2-[2-(3,4-dichloro-phenoxymethyl)-1H-benzoimidazol-5-yl]-benzenesulfonamide]
99 | 13 | – | NS(=O)(=O)c1ccccc1-c1ccc2[nH]c(COc3ccc(Cl)c(C(F)(F)F)c3)nc2c1 [Cpd 30, 2-[2-(4-chloro-3-trifluoromethyl-phenoxymethyl)-1H-benzoimidazol-5-yl]-benzenesulfonamide]
97 | 10.6 | – | NS(=O)(=O)c1ccccc1-c1ccc2[nH]c(COc3cc(C(F)(F)F)cc(C(F)(F)F)c3)nc2c1 [Cpd 31, 2-[2-(3,5-bis-trifluoromethyl-phenoxymethyl)-1H-benzoimidazol-5-yl]-benzenesulfonamide]
– | 6 | 100 | CC(C)(C)c1ccc(OCc2nc3cc(-c4ccccc4S(N)(=O)=O)ccc3[nH]2)cc1 [Cpd 32, 2-[2-(4-tert-butyl-phenoxymethyl)-1H-benzoimidazol-5-yl]-benzenesulfonamide]
100 | 44 | – | CCOc1ccc(OCc2nc3cc(-c4ccccc4S(N)(=O)=O)ccc3[nH]2)cc1 [Cpd 33, 2-[2-(4-ethoxy-phenoxymethyl)-1H-benzoimidazol-5-yl]-benzenesulfonamide]
100 | 13 | – | NS(=O)(=O)c1ccccc1-c1ccc2[nH]c(COc3ccc(SC(F)(F)F)cc3)nc2c1 [Cpd 34, 2-[2-(4-trifluoromethylsulfanyl-phenoxymethyl)-1H-benzoimidazol-5-yl]-benzenesulfonamide]
97 | 16 | – | CC(=O)c1ccc(OCc2nc3cc(-c4ccccc4S(N)(=O)=O)ccc3[nH]2)cc1 [Cpd 35, 2-[2-(4-acetyl-phenoxymethyl)-1H-benzoimidazol-5-yl]-benzenesulfonamide]
98 | 32 | – | NS(=O)(=O)c1ccccc1-c1ccc2[nH]c(COc3ccc4ccccc4c3)nc2c1 [Cpd 36, 2-[2-(naphthalen-2-yloxymethyl)-1H-benzoimidazol-5-yl]-benzenesulfonamide]
50 | – | – | NS(=O)(=O)c1ccccc1-c1ccc2[nH]c(COc3ccc4ncccc4c3)nc2c1 [Cpd 37, 2-[2-(quinolin-6-yloxymethyl)-1H-benzoimidazol-5-yl]-benzenesulfonamide]
13 | – | – | NS(=O)(=O)c1ccccc1-c1ccc2[nH]c(COc3ccncc3)nc2c1 [Cpd 38, 2-[2-(pyridin-4-yloxymethyl)-1H-benzoimidazol-5-yl]-benzenesulfonamide]
5 | – | – | NS(=O)(=O)c1ccccc1-c1ccc2[nH]c(COc3ccc(C(F)(F)F)cn3)nc2c1 [Cpd 39, 2-[2-(5-trifluoromethyl-pyridin-2-yloxymethyl)-1H-benzoimidazol-5-yl]-benzenesulfonamide]
100 | 8.6 | – | Cn1c(COc2ccc(C(F)(F)F)cc2)nc2cc(-c3ccccc3S(N)(=O)=O)ccc21 [Cpd 40, 2-[1-methyl-2-(4-trifluoromethyl-phenoxymethyl)-1H-benzoimidazol-5-yl]-benzenesulfonamide]
